Measured values from patent US10561638B2, “Methods for treating dependence” (Biotie Therapies, Inc., priority 2007, dated 2020).
“Also recorded” adds a separate entry of the source.

Columns and labels:
[1] = tested on: short-term or working memory in rats; assay: Delayed-matching-to-position (DMTP) test; format: in vivo, Sprague Dawley rats
Method: In the present DMTP study, rats were trained to remember the position of a lever across a scheduled delay of either 0, 8, 16 or 32 s in order to earn food reward. […] Another group of rats received only vehicle treatment throughout the experiment. […] The dependent measures in the present study included percentage of correct choices, the latency to make choice responses and the number of trials which the animals were able to complete during the 70 min test sessions. Changes in the former measure may indicate changes in memory and/or attentional function whereas changes in the latter two measures may be indicative of other non-cognitive effects of the drugs. Matching to position training began next. This and all subsequent training was conducted with the partitions fitted into the operant boxes. The sessions were initially 50 minutes long. Rats were placed in the operant box and the session began when the houselight was illuminated. Following a 30 s intertrial interval (ITI), one of the two levers (the sample lever) was inserted into the chamber. The lever remained inserted into the chamber until a lever-press response occurred. […] As soon as the magazine flap was pressed the magazine light was extinguished and both levers were inserted. […] The magazine light remained on until the flap was pressed. […] A 30 s ITI was initiated before the commencement of a new trial. The lever inserted as the sample lever was semi-randomly determined such that the right and lefthand levers were presented as the sample lever 8 times in a block of 16 trials. Following 24 sessions, the animals were performing the matching to position task with a high degree of accuracy. On Session 25 a variable delay interval was interposed between the depression of the sample lever and presentation of the levers on the choice trial. After a response to the sample lever, the choice levers were inserted following the first flap press occurring after either a 0 s (immediate), 4, 8 or 16 s delay. The order of the four types of trials (0, 4, 8 or 16 s delay) was semi-randomly determined with the constraint that in a 16 trial block, each delay occurred 4 times; twice on a left trial and twice on a right trial. […] The same trial was reinstated following the end of the ITI. From Session 25 onward the time-out period following incorrect choices was omitted and the session length was increased to 70 minutes. […] Due to poor performance at the 64 s delay, however, this delay was not used in any further sessions. On Session 59, delays of 0, 8, 16 and 32 s were used. These delays were used in all subsequent sessions. Only 51 of the 56 rats completed more than 24 trials (correction plus non-correction) during Session 59. These rats were selected and semi-randomly assigned to the following 7 groups such that the groups were matched on performance (percent correct, response latency and number of trials completed): […] Thus, the drug treatments administered to the seven groups during the 11 consecutive days of the present experiment were: The data collected and analyzed in the present DMTP study include 1) the percentage of correct responses; 2) the latency between performance of a response to the sample lever and the performance of the choice response and 3) the total number of correction and non-correction trials completed. The former two dependent measures were collected for the non-correction trials only. […] Two-way analysis of variance (ANOVA) with drug treatment as the between-subjects factor and delay (0, 8, 16 or 32 s) as the within-subjects factor was used to analyze percentage of correct choices and response latency. These analyses were conducted separately for each block of data. Significant interactions were followed by a one-way ANOVA which was conducted at each delay. A significant main effect from a one-way ANOVA was followed by a two-tailed Dunnett's t-test. One-way ANOVA followed by a post hoc Dunnett's test, when appropriate, was used to analyze the mean number of trials completed. […]

[2] = tested on: conscious, restrained SHRs; assay: Hemodynamic study in conscious, restrained SHRs; format: in vivo, spontaneously hypertensive rats
Method: The in vivo hemodynamic activity of nepicastat was further assessed in conscious, restrained SHRs, a model having high sympathetic drive to cardiovascular tissues. Hemodynamic study in SHRs. Male SHRs (15-16 week old) were used in the study. The animals were lightly anesthetized with ether and the left femoral artery and vein were catheterized for measurement of blood pressure and drug administration, respectively. The animals were placed in restrainers and allowed to recover for 30-40 min. After obtaining baseline measurements, the animals were treated, orally, with either vehicle or the appropriate dose of nepicastat and hemodynamic parameters were continuously recorded for 4 h. The animals were then anesthetized with pentobarbital, placed on a heating pad (37° C.) and ventilated with a Harvard rodent ventilator. After administration of atropine (1 mg/kg, iv) and tubocurarine (1 mg/kg, iv), the animals were pithed through the orbit of the eye with a stainless steel rod. The […] rod was stimulated electrically with 1 ms pulses of 80V at different frequencies (0.15, 0.45, 1.5, 5, 15 Hz) to obtain frequency-pressor response curves. […] The animals were placed in restrainers and allowed to recover for 30-40 minutes. After obtaining baseline measurements, the animals were treated, orally, with either vehicle or the appropriate dose of nepicastat and hemodynamic parameters were continuously recorded for 4 h.

Question: With `Cl.NCc1c[nH]c(=S)n1[C@H]1CCc2c(F)cc(F)cc2C1` [nepicastat, (S)-5-Aminomethyl-1-(5,7-difluoro-1,2,3,4-tetrahydronaphth-2-yl)-2,3-dihydro-2-thioxo-1H-imidazole hydrochloride] as the molecule, how does the all dependent measures ([1]; Block 2) read?
Answer: Its all dependent measures is “no significant effects on any of the dependent measures”.

Question: And the “latency to perform the choice response vs vehicle” value ([1]; Block 4, 32 s delay, nepicastat 10.0 mg/kg)?
Answer: Its value is “longer latency to perform the choice response”.

Question: And the “response latency, number of trials completed” value ([1]; Block 5)?
Answer: The value was “did not significantly affect”.

Question: What about the choice accuracy ([1]; Block 5, 10 and 30 mg/kg at the 32 s delay) of the same molecule?
Answer: Its choice accuracy is “marked dose- and delay-dependent impairment in choice accuracy”.

Question: What about the “improvement of DMTP performance” value ([1]; administered alone, 10 days) of the same molecule?
Answer: Its value is “does not appear to induce memory enhancing effects”.

Question: And the “reversal of the effects of scopolamine” value ([1]; day 11 scopolamine test)?
Answer: The value was “did not appear to reverse the effects of scopolamine”.

Question: And the “days of dosing after which memory-disrupting effects are apparent” value ([1]; rat, in vivo)?
Answer: Its value is 8 days.

Question: And the “decrease in heart rate” value ([2]; 10 mg/kg)?
Answer: Its value is 9.8%.

Question: What about the “maximal decrease in mean blood pressure” value ([2]; 10 mg/kg po) of the same molecule?
Answer: Its value is 53±4 mmHg.

Question: And the “reduction in mean blood pressure relative to vehicle control” value ([2]; 10 mg/kg po)?
Answer: The value was 33%.

Question: And the “decrease in blood pressure 4 hours after dosing” value ([2]; 10 mg/kg, SHRs)?
Answer: Its value is −46 mmHg.

Question: What about the “decrease in heart rate” value ([2]; 30 mg/kg) of the same molecule?
Answer: Its value is 10.5%.

Question: And the “effect on mean arterial pressure” value ([2]; 0.3-30 mg/kg po, up to 4 h, hydrochloride)?
Answer: Its value is “significant (p<0.05) lowering of mean arterial pressure; also recorded: significant antihypertensive effect”.

Question: And the “effect on heart rate” value ([2]; 10 and 30 mg/kg po)?
Answer: Its value is “significantly reduced heart rate”.

Question: And the “duration of antihypertensive effects” value ([2]; acute oral administration)?
Answer: The value was greater than 4 h.

Question: And the “time to plateau of the antihypertensive response” value ([2]; po)?
Answer: The value was 3 to 4 h.
